Laboratory results reported in patent publication US20250332112A1, “IONIZABLE CATIONIC LIPIDS FOR LIPID NANOPARTICLES” (GENEVANT SCIENCES GMBH, priority 2022, published 2025).

Columns and labels:
[1] = Particle characteristics of LNPs containing luciferase mRNA and novel ionizable lipids; format: physicochemical; conditions: luciferase mRNA LNP 1.6:54.6:32.8:10.9
Method: The lipid solution contains 4 components: a PEG-conjugated lipid, an ionizable lipid, cholesterol, and a phospholipid (e.g., DSPC). Lipid stocks were prepared using the lipid identities and molar ratios as described, to achieve a total concentration of ˜7 mg/mL in 100% ethanol. Firefly luciferase mRNA (TriLink Biotechnologies, L-7202) or ornithine transcarbamylase (OTC) mRNA (TriLink Biotechnologies, custom designed) was diluted in acetate, pH 5 buffer and nuclease free water to achieve a target concentration of 0.366 mg/mL mRNA in 100 mM acetate, pH 5. Equal volumes of the lipid and nucleic acid solutions were blended at a flow rate of 400 mL/min through a T-connector, and diluted with ˜4 volumes of PBS, pH 7.4. Formulations were placed in Slide-A-Lyzer dialysis units (MWCO 10,000) and dialyzed overnight against 10 mM Tris, 500 mM NaCl, pH 8 buffer. Following dialysis, the formulations were concentrated to ˜0.6 mg/mL using VivaSpin concentrator units (MWCO 100,000) and dialyzed overnight against 5 mM Tris, 10% sucrose, pH 8 buffer. Formulations were filtered through a 0.2 μm syringe filter (PES membrane). Nucleic acid concentration was determined by the RiboGreen assay. Particle size and polydispersity were determined using a Malvern Nano Series Zetasizer.
LNP formulations containing novel ionizable lipids all produced stable particles with high encapsulation efficiency (Tables 1-7).

[2] = tested on: luciferase activity in the liver; assay: Luciferase activity in liver after intravenous luciferase mRNA LNP; format: in vivo; conditions: 0.5 mg/kg IV, 6 h post-IV administration, BALB/c mice (n = 4)
Method: Frozen aliquots of liver were thawed and homogenized in 1 mL of 1×CCLR (Cell Culture Lysis Reagent) using a FastPrep® homogenizer. The homogenate was then centrifuged at 16,000 RPM for 10 minutes at 4° C. Twenty (20) μL of the supernatant was loaded into a 96-well white plate and luminescence measured following addition of luciferase reagent (Promega Luciferase Assay System). Luciferase activity was determined by comparing luminescence of the homogenized samples to luciferase protein standards. To account for any quenching of luminescence by components in the liver homogenate, luciferase was added to the liver homogenates of untreated animals and the resulting luminescence measured. The resulting quench factor was applied to all samples to obtain the corrected luciferase activity, and normalized per unit mass of tissue analyzed.

[3] = Parent ionizable lipid remaining in liver at 6 h after luciferase mRNA LNP (LC-MS); format: in vivo; conditions: 6 h after IV 0.5 mg/kg Luciferase mRNA LNP
Method: Liver tissues were treated with PBS and homogenized with a FastPrep machine, 3 cycles of 5 m/s×15 s. Homogenates from the PBS-treated control animals was pooled and used for standard curve preparation. Samples were extracted into a deep well plate with 250 μL of an internal suitability standard. Plates were centrifuged for 15 min at 4° C. and 2000 rpm. Analysis was performed using an Agilent 6520 QTOF coupled to an Agilent 1290 UHPLC, using reverse-phase LC separation. Quantitation of the ionizable lipid was by MS/MS against a calibration curve spiked into appropriately matched blank matrix. Calibration used a similar class of synthetic lipid as internal standard.
At 6 h post-dose, some treatment groups reported lower levels of novel ionizable lipid in mouse liver compared to the benchmark (Tables 16-18).

[4] = Table 18, female BALB/c mice (n = 4)
[5] = Table 16, female BALB/c mice (n = 4)

SMILES	Final Product % EE ([1]; Table 7) [%]	Final Product PDI ([1]; Table 7)	Final Product Z-avg ([1]; Table 7) [nm]	Luc Activity ([2]; Table 14) [pg/g liver]	Parent ionizable lipid remaining in liver, Average [3, 4] [nmol/g liver]	Final Product % EE ([1]; Table 3) [%]	Final Product PDI ([1]; Table 3)	Final Product Z-avg ([1]; Table 3) [nm]	Luc Activity ([2]; Table 10) [pg/g liver]	Parent ionizable lipid remaining in liver, Average [3, 5] [nmol/g liver]	other results
CCCCCCCCCCN(C(=O)CCCN(C)C)C(CCCCCCCCC)CCCCCCC(F)(F)C(=O)OCCC(CCCCCCC)CCCCCCC (stereo not drawn) [Compound 18, 3-Heptyldecyl 9-(N-decyl-4-(dimethylamino)butanamido)-2,2-difluorooctadecanoate]	–	–	–	–	–	–	–	–	–	–	Final Product % EE ([1]; Table 6): 98%; Final Product PDI ([1]; Table 6): 0.07; Final Product Z-avg ([1]; Table 6): 73 nm; Luc Activity ([2]; Table 13): 4.32E+07 pg/g liver; Parent ionizable lipid remaining in liver, Average ([3]; Table 17, female mice (n = 4)): 17.02 nmol/g liver
CCCCCCCCCCN(C(=O)CCCN(C)C)C(CCCCCCCCC)CCCCCCC(F)(F)C(=O)OC(CCCCC)CCCCC (stereo not drawn) [Compound 19, Undecan-6-yl 9-(N-decyl-4-(dimethylamino)butanamido)-2,2-difluorooctadecanoate]	–	–	–	–	–	–	–	–	–	–	Final Product % EE ([1]; Table 6): 99%; Final Product PDI ([1]; Table 6): 0.09; Final Product Z-avg ([1]; Table 6): 71 nm; Luc Activity ([2]; Table 13): 1.25E+06 pg/g liver; Parent ionizable lipid remaining in liver, Average ([3]; Table 17, female mice (n = 4)): 20.22 nmol/g liver
CCCCCCCCCCN(C(=O)CCCN(C)C)C(CCCCCCCCC)CCCCCCC(F)(F)C(=O)OCCC(CCCCC)CCCCC (stereo not drawn) [Compound 20, 3-Pentyloctyl 9-(N-decyl-4-(dimethylamino)butanamido)-2,2-difluorooctadecanoate]	98	0.08	72	2.71E+07	1.82	–	–	–	–	–	–
CCCCCCCCCCCCCOC(=O)CCCCC(CCCCCCCCCC)N(CCN(C)C)C(=O)CCCCC(=O)OCC(CCCC)CCCCCC (stereo not drawn) [Compound 23, tridecyl 6-{6-[(2-butyloctyl)oxy]-N-[2-(dimethylamino)ethyl]-6-oxohexanamido}hexadecanoate]	–	–	–	–	–	97	0.06	69	4.44E+06	31.85	–
CCCCCCCCCCCCCOC(=O)CCCCC(CCCCCCCCCC)N(CCN(C)C)C(=O)CCCCCCC(=O)OCC(CCCC)CCCCCC (stereo not drawn) [Compound 24, Tridecyl 6-(8-((2-butyloctyl)oxy)-N-(2-(dimethylamino)ethyl)-8-oxooctanamido)-hexadecanoate]	–	–	–	–	–	96	0.08	72	3.98E+06	35.16	–
CCCCCCCCCCN(C(=O)CCCN(C)C)C(CCCCCCCCC)CC(=O)OCC(CCCCCC)CCCCCCCC (stereo not drawn) [Compound 32, 2-hexyldecyl 3-[N-decyl-4-(dimethylamino)-butanamido]dodecanoate]	–	–	–	–	–	99	0.02	85	3.07E+07	21.66	–
CCCCCCCCCC(CCCCCCC(F)C(=O)OCCC(CCCCC)CCCCC)N(CCCCCC(F)C(=O)OCCC(CCCCC)CCCCC)C(=O)CCCN(C)C (stereo not drawn) [Compound 34, 3-pentyloctyl 9-[4-(dimethylamino)-N-{6-fluoro-7-oxo-7-[(3-pentyloctyl)oxy]heptyl}butanamido]-2-fluorooctadecanoate]	99	0.10	70	1.91E+06	1.78	–	–	–	–	–	–
CCCCCCCCCCON(C(=O)CCCN(C)C)C(CCCCCCCCC)CCCCCCC(F)C(=O)OCCC(CCCCC)CCCCC (stereo not drawn) [Compound 38, 3-pentyloctyl 9-[N-(decyloxy)-4-(dimethylamino)butanamido]-2-fluorooctadecanoate]	98	0.17	65	2.13E+07	3.14	–	–	–	–	–	–
CCCCCCCCCCON(C(=O)CCCN(C)C)C(CCCCCCCCCC)CCCCCCC(F)(F)C(=O)OCCC(CCCCC)CCCCC (stereo not drawn) [Compound 39, 3-pentyloctyl 9-[N-(decyloxy)-4-(dimethylamino)butanamido]-2,2-difluorononadecanoate]	98	0.19	59	4.30E+06	2.91	–	–	–	–	–	–
CCCCCCCCCCON(C(=O)CCCCN(C)C)C(CCCCCCCCCC)CCCCCC(=O)OCC(CCCCCC)CCCCCCCC (stereo not drawn) [Compound 47, 2-Hexyldecyl 7-(N-(decyloxy)-5-(dimethylamino)pentanamido)heptadecanoate]	98	0.07	77	8.09E+07	54.78	–	–	–	–	–	–
CCCCC/C=C\CCCN(CCC/C=C\CCCCC)NC(=O)CC(CCCCCCCCC)N(CCCN(C)C)C(=O)CCCCCCCCC (stereo not drawn) [Compound 54, N-(1-(2,2-di((Z)-Dec-4-en-1-yl)hydrazineyl)-1-oxododecan-3-yl)-N-(3-(dimethylamino)-propyl)decanamide]	–	–	–	–	–	97	0.05	82	3.28E+06	17.78	–
CCCCC/C=C\CCCC(CCC/C=C\CCCCC)=NNC(=O)CC(CCCCCCCCC)N(CCCN(C)C)C(=O)C(CCCCCC)CCCCCCCC (stereo not drawn) [Compound 57, N-(3-(dimethylamino)propyl)-N-(1-(2-((6Z,15Z)-henicosa-6,15-dien-11-ylidene)hydrazineyl)-1-oxododecan-3-yl)-2-hexyldecanamide]	–	–	–	–	–	80	0.03	84	2.43E+06	15.88	–
CCCCC/C=C\CCCC(CCC/C=C\CCCCC)NNC(=O)CC(CCCCCCCCC)N(CCCN(C)C)C(=O)CCCCCCCCC (stereo not drawn) [Compound 59, N-(3-(Dimethylamino)propyl)-N-(1-(2-((6Z,15Z)-henicosa-6,15-dien-11-yl)hydrazineyl)-1-oxododecan-3-yl)decanamide]	–	–	–	–	–	99	0.07	82	1.12E+06	22.67	–
CCCCCCCCCCC(CCCCC(=O)OCc1cc(CCCCCC)cc(CCCCCC)c1)N(CCCN(C)C)C(=O)CCCCCCCCC (stereo not drawn) [Compound 60, (3,5-dihexylphenyl)methyl 6-{N-[3-(dimethylamino)propyl]decanamido}hexadecanoate]	–	–	–	–	–	99	0.05	73	8.23E+06	35.39	–
CCCCCCCCCCCCC(=O)N(CCCN(C)C)C(CCCCCCCCCC)CCCCC(=O)OCc1cc(CCCCCC)cc(CCCCCC)c1 (stereo not drawn) [Compound 61, 3,5-Dihexylbenzyl 6-(N-(3-(dimethylamino)propyl)tridecanamido)hexadecanoate]	–	–	–	–	–	99	0.05	76	2.45E+07	27.21	–
